Consider 17 compounds from patent US5721246A, “Heterobicyclic sulfonamide and sulfonic ester derivatives” (Eisai Co., Ltd., priority 1993, dated 1998).

Values after ≈ are worked out from the molar mass of the structure shown. Where two headings read alike, the source gives them in different places.

The subject of one experiment is colon 38. It counts as in vivo, mouse. To be noted: once a day for 8 days, BDF1 mice, tumor weight on 21st day. The protocol: In vivo Antitumor Test Against Colon 38 (Mouse Colon Cancer)
About 75 mg of colon 38 was subcutaneously transplanted to the flank of each BDF1 mouse (aged 7 weeks, female). A test compound according to the present invention was suspended in a physiological saline containing 3.5% of dimethyl sulfoxide and 6.5% of Tween 80 and the obtained suspension was intraperitoneally administered to the mice in a predetermined dose once a day for 8 days from the next day of transplantation. On the other hand, only a physiological saline containing 3.5% of dimethyl sulfoxide and 6.5% of Tween 80 was intraperitoneally administered to the mice of the control group. The control group was composed of ten mice, while each treated group was composed of six mice.
On the 21st day after the transplantation, the tumor was extirpated from each mouse to determine its weight. The tumor growth inhibition ratio was determined by the following formula: [formula] T: average weight of tumor of the treated group C: average weight of tumor of the control group

The subject of a further experiment is colon 38 cells. The experiment is described as follows: In vitro antitumor test against colon 38 cells (MTT). It counts as cell-based. As to conditions: 72 h, concentration at which 50% of mouse colon 38 cells are inhibited, 3 days. Here is the method:
In vitro Antitumor Test Against Colon 38 Cells (Mouse Colon Cancer Cells)
2.5×10^3 (0.1 ml) of colon 38 cells suspended in RPMI1640 medium (a product of Sanko Junyaku) containing 10% of fetal bovine serum, penicillin (100 units/ml), streptomycin (100 μg/ml), mercaptoethanol (5×10^-5 M) and sodium pyruvate (1 mM) were inoculated in each well of a 96-well flat-bottomed microplate, and cultured in an incubator containing 5% of carbon dioxide at 37° C. for one day.
A test compound according to the present invention was dissolved in dimethyl sulfoxide in a concentration of 20 mg/ml and the resulting solution was diluted with 10% fetal bovine serum/RPMI1640 medium to a concentration of 200 μg/ml. The resulting solution was diluted with 10% fetal bovine serum/RPMI1640 medium to prepare 3-fold serial dilutions with the maximum concentration being 200 μg/ml. The obtained dilutions were each poured into the well of the above-described culture plate in an amount of 0.1 ml. The resulting plate was cultured at 37° C. in an incubator containing 5% of carbon dioxide for 3 days.
Thereafter, a solution of MTT[3-(4,5-dimethylthiazol-2-yl)-2,5-diphenyltetrazolium bromide] (having a concentration of 3.3 mg/ml) was added to each well in an amount of 0.05 ml. The resulting mixtures were further incubated for 2 hours. The supernatant was removed from each well by suction. Formed formazan was dissolved in 0.1 ml of dimethyl sulfoxide. The absorbance at 540 nm was determined with a microplate reader and the absorbance was taken as an index of the number of viable cells. The inhibitory ratio of the test compound was calculated according to the following formula to determine the IC50 of the test compound, with the IC50 referring to the concentration at which 50% of mouse colon 38 cells are inhibited: [formula] T: absorbance of well containing a test compound C: absorbance of well containing no test compound

The test system of another experiment is HCT116. The experiment is described as follows: animal or person. As to conditions: Mus musculus, HCT-116, ip, 504 h, once a day for 4 days, nude mice, tumor weight on 21st day, read-out: Growth inhibition ratio; for inhibition in vivo at 100 mg/kg: 100 mg/kg/day i.p.; for inhibition in vivo at 50 mg/kg: 50 mg/kg/day i.p. An excerpt:
In vivo Antitumor Test Against HCT116 (Human Colon Cancer)
HCT116 (5 to 8×10^6) was subcutaneously transplanted to the flank of each nude mouse (BALB/c·nu/nu, aged 7 to 8 weeks, female). A test compound according to the present invention was suspended in a physiological saline containing 3.5% of dimethyl sulfoxide and 6.5% of Tween 80 and the obtained suspension was intraperitoneally administered to the mice treated above once a day in a predetermined dose for 4 days after the time at which the tumor volume had increased to about 100 mm^3, which was about 7 days after the transplantation. On the other hand, only a physiological saline containing 3.5% of dimethyl sulfoxide and 6.5% of Tween 80 was intraperitoneally administered to the mice of the control group. The control group was composed of ten mice, while each treated group was composed of five mice. On the 21st day after the initiation of administration, the tumor was extirpated from each mouse to determine its weight. The tumor growth inhibition ratio was determined by the following formula: [formula] T: average weight of tumor of the treated group C: average weight of tumor of the control group

Usually IC50 stands for the point on the concentration scale where inhibition reaches its midpoint. `NC(=O)c1ccc(S(=O)(=O)Nc2cccc3c(Cl)c[nH]c23)cc1` [Example 29]: the Growth inhibition ratio in the experiment with colon 38 (50 mg/kg/day i.p.) was found to be 97%. In the experiment on colon 38 cells, half-maximal inhibition (IC50) required 0.19 µg/mL (≈ 0.543 µM). Besides, the inhibition in vivo at 100 mg/kg in the experiment with HCT116 worked out at 80%.

The compound `CS(=O)(=O)Cc1ccc(S(=O)(=O)Nc2cccc3c(Cl)c[nH]c23)cc1` [Example 73] returned an IC50 in the experiment on colon 38 cells of 0.11 µg/mL (≈ 0.276 µM). Besides, in the experiment with HCT116, the inhibition in vivo at 50 mg/kg is 78%.

With `Nc1ccc(S(=O)(=O)Nc2cccc3c(Cl)c[nH]c23)cc1` [Example 3], the Growth inhibition ratio in the experiment with colon 38 (50 mg/kg/day i.p.) worked out at 94%. Further, 0.23 µg/mL (≈ 0.715 µM) corresponded to half-maximal inhibition in the experiment with colon 38 cells (IC50).

Turning to `CC(=O)c1ccc(S(=O)(=O)Nc2cccc3c(C#N)c[nH]c23)cc1` [Example 42], the Growth inhibition ratio with colon 38 (50 mg/kg/day i.p.) was found to be 98%. The same compound returned an IC50 in the experiment on colon 38 cells of 0.25 µg/mL (≈ 0.737 µM).

For `N#Cc1c[nH]c2c(NS(=O)(=O)c3cccc(Cl)c3)cccc12` [Example 17], the Growth inhibition ratio with colon 38 (50 mg/kg/day i.p.) turned out to be 94%. For the same compound, in the experiment with colon 38 cells, 0.13 µg/mL (≈ 0.392 µM) corresponded to half-maximal inhibition (IC50).

Take `CC(C)Nc1ccc(S(=O)(=O)Nc2cccc3c(Cl)c[nH]c23)cn1` [Example 46]: in the experiment with colon 38 cells, the IC50 turned out to be 0.47 µg/mL (≈ 1.29 µM). Further, the inhibition in vivo at 50 mg/kg in the experiment on HCT116 worked out at 84%.

In the experiment with colon 38 cells, `N#Cc1c[nH]c2c(NS(=O)(=O)c3ccc(N)nc3)cccc12` [Example 37] came in with an IC50 of 0.19 µg/mL (≈ 0.606 µM). The inhibition in vivo at 100 mg/kg with HCT116 came to 93%.

As for `CS(=O)(=O)c1ccc(S(=O)(=O)Nc2cccc3c(Cl)c[nH]c23)cc1` [Example 23], in the experiment with colon 38 cells, it took 0.13 µg/mL (≈ 0.338 µM) to reach half-maximal inhibition (IC50). In the experiment on HCT116, the inhibition in vivo at 100 mg/kg turned out to be 87%.

For the compound `CNC(=O)c1ccc(S(=O)(=O)Nc2cccc3c(Cl)c[nH]c23)cc1` [Example 72], the IC50 with colon 38 cells turned out to be 0.15 µg/mL (≈ 0.412 µM). For the same compound, in the experiment on HCT116, the inhibition in vivo at 100 mg/kg turned out to be 87%.

In the case of `N#Cc1ccc(S(=O)(=O)Nc2cccc3c(Cl)c[nH]c23)cc1` [Example 10], the Growth inhibition ratio in the experiment with colon 38 (50 mg/kg/day i.p.) is given as 94%. Further, it took 0.13 µg/mL (≈ 0.392 µM) to reach half-maximal inhibition in the experiment on colon 38 cells (IC50).

In turn, `CS(=O)(=O)NCc1ccc(S(=O)(=O)Nc2cccc3c(Cl)c[nH]c23)cc1` [Example 53] came in with an IC50 with colon 38 cells of 0.12 µg/mL (≈ 0.29 µM). Also, the inhibition in vivo at 50 mg/kg with HCT116 turned out to be 86%.

Consider `Nc1ccc(S(=O)(=O)Nc2cccc3c(Cl)c[nH]c23)cn1` [Example 33], for which the IC50 with colon 38 cells stood at 0.1 µg/mL (≈ 0.31 µM). Further, the inhibition in vivo at 50 mg/kg in the experiment with HCT116 is 74%.

With `NS(=O)(=O)c1ccc(S(=O)(=O)Nc2cccc3c(Cl)c[nH]c23)cc1` [Example 19], the IC50 with colon 38 cells worked out at 0.1 µg/mL (≈ 0.259 µM). Besides, in the experiment on HCT116, the inhibition in vivo at 50 mg/kg was found to be 88%.

As for `Nc1ccc(S(=O)(=O)Nc2cnc3c(Cl)cccc3n2)cc1` [CQS, 2-sulfanylamido-5-chloroquinoxaline, reference compound], the Growth inhibition ratio with colon 38 (200 mg/kg/day i.p.) came out at 53%. Besides, the 50% inhibitory concentration (IC50) in the experiment with colon 38 cells is 2 µg/mL (≈ 5.97 µM). Moreover, the inhibition in vivo at 200 mg/kg in the experiment with HCT116 (200 mg/kg/day i.p.) is 33%.

On to `N#Cc1ccc(S(=O)(=O)Nc2cccc3c(C#N)c[nH]c23)cc1` [Example 28], for which, in the experiment on colon 38 cells, the IC50 amounted to 0.12 µg/mL (≈ 0.372 µM). Also, the inhibition in vivo at 100 mg/kg in the experiment with HCT116 stood at 77%.

In the case of `CS(=O)(=O)Nc1ccc(S(=O)(=O)Nc2cccc3c(Cl)c[nH]c23)cc1` [Example 4], in the experiment with colon 38 cells, half-maximal inhibition (IC50) required 0.26 µg/mL (≈ 0.65 µM). Further, the inhibition in vivo at 100 mg/kg with HCT116 was found to be 97%.

In turn, `NS(=O)(=O)c1ccc(S(=O)(=O)Nc2ccc(Cl)c3c(Cl)c[nH]c23)cc1` [Example 21] came in with an IC50 in the experiment with colon 38 cells of 0.12 µg/mL (≈ 0.286 µM). Further, in the experiment with HCT116, the inhibition in vivo at 100 mg/kg was determined as 95%.
